Twelve molecules from patent publication US20140303164A1, “THERAPEUTIC COMPOUNDS” (Gilead Sciences, Inc., priority 2013, published 2014) can be followed below.

The test system of this test is HIV-IIIb. Description: Test A: Antiviral Assay in MT4 Cells. It is filed as cell-based, HIV-1. The note with it: for inhibition at 0.2 µM / inhibition at 2 µM: Human immunodeficiency virus 1, IIIB, MT4, 120 h; for inhibition at 0.2 µM: read-out: % inhibition at 0.2 μM; for inhibition at 2 µM: read-out: % inhibition at 2 μM. Here is the method: Test A: Antiviral Assay in MT4 Cells
MT-4 cells were next mixed with HIV-IIIb at an m.o.i of 0.003 for 1 hour, after which time 35 μL of virus/cell mixture (2000 cells) was immediately added to each well containing 40 μL of diluted compound. The plates were then incubated at 37° C. for 5 days. […] Cell lysis was carried out by incubating at room temperature for 10 min and then chemiluminescence was read.

By inhibition is commonly meant the drop in the measured response relative to a control, in per cent. As to `Cn1nc(N[S+](C)[O-])c2c(Cl)ccc(-c3ccc(C#CC(C)(C)O)nc3[C@H](Cc3cc(F)cc(F)c3)NC(=O)Cn3nc(C(F)F)c4c3C(F)(F)[C@@H]3C[C@H]43)c21` (stereo partly drawn) [Compound 180C, N-((1S)-1-(3-(4-chloro-1-methyl-3-(methylsulfinamido)-1H-indazol-7-yl)-6-(3-hydroxy-3-methylbut-1-yn-1-yl)pyridin-2-yl)-2-(3,5-difluorophenyl)ethyl)-2-((3b-S,4aR)-3-(difluoromethyl)-5,5-difluoro-3b,4,4a,5-tetrahydro-1H-cyclopropa[3,4]cyclopenta[1,2-c]pyrazol-1-yl)acetamide], the inhibition at 0.2 µM is 100% and the inhibition at 2 µM was determined as 100%.
In the case of `COc1cc(-c2ccc(-c3ccc4c(c3)C(=O)NC4)c([C@H](Cc3cc(F)cc(F)c3)NC(=O)Cn3nc(C(F)F)c4c3C(F)(F)CCC4(F)F)n2)ccn1` [Compound 8C, (S)-2-(3-(difluoromethyl)-4,4,7,7-tetrafluoro-4,5,6,7-tetrahydro-1H-indazol-1-yl)-N-(2-(3,5-difluorophenyl)-1-(2′-methoxy-5-(3-oxoisoindolin-5-yl)-[2,4′-bipyridin]-6-yl)ethyl)acetamide], the inhibition at 0.2 µM was found to be 6%.
`Cn1nc(NS(C)(=O)=O)c2c(F)ccc(-c3ccc(C#CC(C)(C)O)nc3[C@H](Cc3cc(F)cc(F)c3)NC(=O)Cn3nc(C(F)F)c4c3C(F)(F)[C@@H]3C[C@H]43)c21` [Compound 75, 2-((3b-S,4aR)-3-(difluoromethyl)-5,5-difluoro-3b,4,4a,5-tetrahydro-1H-cyclopropa[3,4]cyclopenta[1,2-c]pyrazol-1-yl)-N—((S)-2-(3,5-difluorophenyl)-1-(3-(4-fluoro-1-methyl-3-(methylsulfonamido)-1H-indazol-7-yl)-6-(3-hydroxy-3-methylbut-1-yn-1-yl)pyridin-2-yl)ethyl)acetamide]: the inhibition at 0.2 µM worked out at 92% and the inhibition at 2 µM amounted to 93%.
Regarding `CC(C)(O)C#Cc1cnc([C@H](Cc2cc(F)cc(F)c2)NC(=O)Cn2nc(C(F)F)c3c2C(F)(F)CCC3(F)F)c(-c2ccc3c(c2)C(=O)NC3)c1` [Compound 4H, (S)-2-(3-(difluoromethyl)-4,4,7,7-tetrafluoro-4,5,6,7-tetrahydro-1H-indazol-1-yl)-N-(2-(3,5-difluorophenyl)-1-(5-(3-hydroxy-3-methylbut-1-ynyl)-3-(3-oxoisoindolin-5-yl)pyridin-2-yl)ethyl)acetamide], the inhibition at 0.2 µM is 8%.
Turning to `Cc1ccc(-c2ccc(C#CC(C)(C)O)nc2[C@H](Cc2cc(F)cc(F)c2)NC(=O)Cn2nc(C(F)F)c3c2C(F)(F)[C@@H]2C[C@H]32)c2c1c(NS(C)(=O)=O)nn2C` [Compound 112D, 2-((3b-S,4aR)-3-(difluoromethyl)-5,5-difluoro-3b,4,4a,5-tetrahydro-1H-cyclopropa[3,4]cyclopenta[1,2-c]pyrazol-1-yl)-N—((S)-2-(3,5-difluorophenyl)-1-(3-(1,4-dimethyl-3-(methylsulfonamido)-1H-indazol-7-yl)-6-(3-hydroxy-3-methylbut-1-yn-1-yl)pyridin-2-yl)ethyl)acetamide], the inhibition at 0.2 µM is 97% and the inhibition at 2 µM turned out to be 97%.
As to `Cn1nc(NS(C)(=O)=O)c2c(Cl)ccc(-c3ccc(C#CC(C)(C)O)nc3[C@H](Cc3cc(F)cc(F)c3)NC(=O)Cn3nc(C(F)F)c4c3C(F)(F)[C@@H]3C[C@H]43)c21` [Compound 19G, (S)—N-(1-(3-(4 chloro-1-methyl-3-(methylsulfonamido)-1H-indazol-7-yl)-6-(3-hydroxy-3-methylbut-1-ynyl)pyridin-2-yl)-2-(3,5-difluorophenyl)ethyl)-2-((3bS,4aR)-5,5-difluoro-3-(difluoromethyl)-3b,4,4a,5-tetrahydro-1H-cyclopropa[3,4]cyclopenta[1,2-c]pyrazol-1-yl)acetamide], the inhibition at 0.2 µM amounted to 97% and the inhibition at 2 µM worked out at 93%.
Turning to `CC(C)(O)C#Cc1ccc(-c2ccc3c(c2)C(=O)NC3)c([C@H](Cc2cc(F)cc(F)c2)NC(=O)Cn2nc(C(F)F)c3c2C(F)(F)CCC3(F)F)n1` [Compound 9B, (S)-2-(3-(difluoromethyl)-4,4,7,7-tetrafluoro-4,5,6,7-tetrahydro-1H-indazol-1-yl)-N-(2-(3,5-difluorophenyl)-1-(6-(3-hydroxy-3-methylbut-1-yn-1-yl)-3-(3-oxoisoindolin-5-yl)pyridin-2-yl)ethyl)acetamide], the inhibition at 0.2 µM is 92%.
As for `O=C(Cn1nc(C(F)F)c2c1C(F)(F)CCC2(F)F)N[C@@H](Cc1cc(F)cc(F)c1)c1nc(-c2cc[nH]c(=O)c2)ccc1-c1ccc2c(c1)C(=O)NC2` [Compound 12, (S)-2-(3-(difluoromethyl)-4,4,7,7-tetrafluoro-4,5,6,7-tetrahydro-1H-indazol-1-yl)-N-(2-(3,5-difluorophenyl)-1-(2′-oxo-5-(3-oxoisoindolin-5-yl)-1′,2′-dihydro-[2,4′-bipyridin]-6-yl)ethyl)acetamide], the inhibition at 0.2 µM was determined as 1%.
Turning to `NC(=O)c1cc(-c2ccc(-c3ccc(F)c(C(N)=O)c3)c([C@H](Cc3cc(F)cc(F)c3)NC(=O)Cn3nc(C(F)F)c4c3C(F)(F)CCC4(F)F)n2)ccc1F` [Compound 5G, (S)-5,5′-(6-(1-(2-(3 (difluoromethyl)-4,4,7,7-tetrafluoro-4,5,6,7-tetrahydro-1H-indazol-1-yl)acetamido)-2-(3,5-difluorophenyl)ethyl)pyridine-2,5-diyl)bis(2-fluorobenz amide)], the “Response at 0.2 μM” value (percent inhibition of virus-induced cell killing at 0.2 μM, comparison with previously published compounds (WO 2013/006738)) came out at 3%. Moreover, for the setting “percent inhibition of virus-induced cell killing at 2 μM, comparison with previously published compounds (WO 2013/006738)”, the “Response at 2 μM” value is listed as 58%.
For `NC(=O)c1ccc(-c2cnc3[nH]ccc3c2)c([C@H](Cc2cc(F)cc(F)c2)NC(=O)Cn2nc(C(F)F)c3c2C(F)(F)CCC3(F)F)n1` [Compound 1B, (S)-6-(1-(2-(3-(difluoromethyl)-4,4,7,7-tetrafluoro-4,5,6,7-tetrahydro-1H-indazol-1-yl)acetamido)-2-(3,5-difluorophenyl)ethyl)-5-(1H-pyrrolo[2,3-b]pyridin-5-yl)picolinamide], the inhibition at 0.2 µM was determined as 17%.
With `COc1ccc(-c2ccc(C#CC(C)(C)O)nc2[C@H](Cc2cc(F)cc(F)c2)NC(=O)Cn2nc(C(F)F)c3c2C(F)(F)[C@@H]2C[C@H]32)c2c1c(NS(C)(=O)=O)nn2C` [Compound 141D, 2-((3b-S,4aR)-3-(difluoromethyl)-5,5-difluoro-3b,4,4a,5-tetrahydro-1H-cyclopropa[3,4]cyclopenta[1,2-c]pyrazol-1-yl)-N—((S)-2-(3,5-difluorophenyl)-1-(6-(3-hydroxy-3-methylbut-1-yn-1-yl)-3-(4-methoxy-1-methyl-3-(methylsulfonamido)-1H-indazol-7-yl)pyridin-2-yl)ethyl)acetamide], the inhibition at 0.2 µM came out at 100% and the inhibition at 2 µM amounted to 100%.
In the case of `CC(C)(O)C#Cc1ccc(-c2cccc3c(=O)[nH]cnc23)c([C@H](Cc2cc(F)cc(F)c2)NC(=O)Cn2nc(C(F)(F)F)c3c2C(F)(F)[C@@H]2C[C@H]32)n1` [Compound 2, 2-((3bS,4aR)-5,5-difluoro-3-(trifluoromethyl)-3b,4,4a,5-tetrahydro-1H-cyclopropa[3,4]cyclopenta[1,2-c]pyrazol-1-yl)-N—((S)-2-(3,5-difluorophenyl)-1-(6-(3-hydroxy-3-methylbut-1-yn-1-yl)-3-(4-oxo-3,4-dihydroquinazolin-8-yl)pyridin-2-yl)ethyl)acetamide], the inhibition at 0.2 µM turned out to be 79%.
